# Reference: US20080207684A1, “Kinase inhibitors and methods for using the same” (Roche Palo Alto LLC, priority 2007, published 2008)
# Target: T1, p38 MAP kinase (Homo sapiens, UniProt Q16539)
# T1 construct: made in house; host or cells: E. coli (co-expressed with SEK-1 and MEKK)
# Experiment: p38 (MAP) kinase in vitro assay (transfer of γ-33P from ATP to Myelin Basic Protein)
# Format: biochemical
# Conditions: phosphorylated recombinant p38 MAP kinase, MBP substrate, γ-33P-ATP, 30° C.
# Experimental: This example illustrates a p38 (MAP) kinase in vitro assay useful for evaluating the compounds of the invention.
# The p38 MAP kinase inhibitory activity of compounds of this invention in vitro was determined by measuring the transfer of the γ-phosphate from γ-^33P-ATP by p-38 kinase to Myelin Basic Protein (MBP), using a minor modification of the method described in Ahn, et al., J. Biol. Chem. 266:4220-4227 (1991).
# The phosphorylated form of the recombinant p38 MAP kinase was co-expressed with SEK-1 and MEKK in E. Coli (see, Khokhlatchev, et al., J. Biol. Chem. 272:11057-11062 (1997)) and then purified by affinity chromatography using a Nickel column.
# The phosphorylated p38 MAP kinase was diluted in kinase buffer (20 mM 3-(N-morpholino)propanesulfonic acid, pH 7.2, 25 mM β-glycerol phosphate, 5 mM ethylene glycol-bis(beta-aminoethyl ether)-N,N,N′,N′-tetraacetic acid, 1 mM sodium ortho-vanadate, 1 mM dithiothreitol, 40 mM magnesium chloride). Test compound dissolved in DMSO or only DMSO (control) was added and the samples were incubated for 10 min at 30° C. The kinase reaction was initiated by the addition of a substrate cocktail containing MBP and γ-^33P-ATP. […] The phosphorylated MBP was then separated from the residual γ-^33P-ATP using a phosphocellulose membrane (Millipore, Bedfrod, Mass.) and quantitated using a scintillation counter (Packard, Meriden, Conn.).
# T1 sequence (Q16539 whole entry): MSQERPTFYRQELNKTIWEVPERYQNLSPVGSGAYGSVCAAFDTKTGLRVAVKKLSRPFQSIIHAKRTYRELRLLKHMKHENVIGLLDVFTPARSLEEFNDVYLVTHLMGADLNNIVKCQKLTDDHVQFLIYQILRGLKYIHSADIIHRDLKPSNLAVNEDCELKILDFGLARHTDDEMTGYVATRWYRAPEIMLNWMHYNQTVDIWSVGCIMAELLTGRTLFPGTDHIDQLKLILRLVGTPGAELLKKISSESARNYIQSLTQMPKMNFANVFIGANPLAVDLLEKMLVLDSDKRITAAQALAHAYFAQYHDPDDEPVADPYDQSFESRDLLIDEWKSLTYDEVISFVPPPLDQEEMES
smiles,measurement,value
"CNC(=O)c1ccc(C)c(-c2cc3[nH]nc(N4CCCCC4)c3n(C)c2=O)c1 [Compound 8, 4,N-Dimethyl-3-(4-methyl-5-oxo-3-piperidin-1-yl-4,5-dihydro-1H-pyrazolo[4,3-b]pyridin-6-yl)-benzamide]",IC50,~3 nM
